These results are taken from ChEMBL document CHEMBL1153352 (Bioorg Med Chem Lett, 2009).

The structures appear in SMILES notation. ≈ marks a conversion by molar mass, not a printed value.

In data set [1] the target is Hepatocyte growth factor receptor (Homo sapiens, UniProt P08581). The data set can be described thus: Inhibition of GST-tagged human c-Met expressed in SF9 cells.
A short description of data set [2]: Solubility in water at pH 7.4. It counts as physicochemical.

Chain of Hepatocyte growth factor receptor (P08581 whole entry): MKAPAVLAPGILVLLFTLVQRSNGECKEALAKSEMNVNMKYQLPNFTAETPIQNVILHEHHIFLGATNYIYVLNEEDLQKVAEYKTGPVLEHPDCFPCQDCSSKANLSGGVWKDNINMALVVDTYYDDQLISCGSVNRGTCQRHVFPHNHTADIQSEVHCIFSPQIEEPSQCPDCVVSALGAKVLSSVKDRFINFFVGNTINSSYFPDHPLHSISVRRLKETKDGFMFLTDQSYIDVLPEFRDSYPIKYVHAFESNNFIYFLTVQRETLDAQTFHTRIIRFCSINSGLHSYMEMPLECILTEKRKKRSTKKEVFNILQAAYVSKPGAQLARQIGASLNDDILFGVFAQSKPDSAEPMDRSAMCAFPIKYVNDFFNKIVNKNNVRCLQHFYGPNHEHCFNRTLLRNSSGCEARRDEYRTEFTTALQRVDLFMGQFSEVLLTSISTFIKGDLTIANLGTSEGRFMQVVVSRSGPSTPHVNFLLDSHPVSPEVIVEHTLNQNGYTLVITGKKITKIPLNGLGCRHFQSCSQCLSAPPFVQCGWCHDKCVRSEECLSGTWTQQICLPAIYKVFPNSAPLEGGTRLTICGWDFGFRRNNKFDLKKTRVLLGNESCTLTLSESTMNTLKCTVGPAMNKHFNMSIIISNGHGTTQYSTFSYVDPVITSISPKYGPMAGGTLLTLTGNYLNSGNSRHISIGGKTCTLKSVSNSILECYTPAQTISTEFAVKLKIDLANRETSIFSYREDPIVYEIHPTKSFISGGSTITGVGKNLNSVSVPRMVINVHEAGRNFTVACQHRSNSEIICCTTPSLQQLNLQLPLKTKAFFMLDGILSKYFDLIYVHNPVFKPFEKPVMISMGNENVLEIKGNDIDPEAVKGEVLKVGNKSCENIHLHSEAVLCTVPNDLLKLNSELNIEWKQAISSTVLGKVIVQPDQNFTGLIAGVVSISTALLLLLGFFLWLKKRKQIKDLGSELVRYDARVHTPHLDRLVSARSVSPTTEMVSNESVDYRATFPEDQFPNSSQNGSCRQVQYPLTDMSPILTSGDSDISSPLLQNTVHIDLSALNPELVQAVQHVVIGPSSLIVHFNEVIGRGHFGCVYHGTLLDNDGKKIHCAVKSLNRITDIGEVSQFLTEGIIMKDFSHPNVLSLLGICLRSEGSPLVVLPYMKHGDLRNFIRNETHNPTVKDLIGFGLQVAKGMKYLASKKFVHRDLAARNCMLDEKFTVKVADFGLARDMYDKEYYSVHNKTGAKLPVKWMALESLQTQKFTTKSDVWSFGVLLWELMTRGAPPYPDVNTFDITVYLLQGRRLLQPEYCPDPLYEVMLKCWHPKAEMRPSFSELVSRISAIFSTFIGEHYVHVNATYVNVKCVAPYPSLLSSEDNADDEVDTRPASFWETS

On to `N#Cc1ccc2[nH]c(-c3ccncc3)c(-c3cnc(N)nc3)c2n1`, for which the IC50 entry in data set [1] is recorded as “Not Active”.
In data set [2], `N#Cc1ccc2[nH]c(-c3ccncc3)c(-c3ccc(F)cc3)c2n1` came in with a solubility of 1 µg/mL (≈ 3.18 µM).
As to `CS(=O)(=O)c1ccc(-c2c(-c3ccncc3)[nH]c3ccc(C#N)nc23)cc1`, the IC50 result in data set [1] is “Not Active”.
The same measure, in the same setting: for `N#Cc1ccc2[nH]c(-c3ccncc3)c(-c3ccncc3)c2n1` the value was “Not Active”; for `N#Cc1ccc2[nH]c(-c3ccccc3)c(-c3ccc(F)cc3)c2n1`, “Not Active”.
